Laboratory results reported in BigSolDB 2.1.

CN[C@@H]1[C@H](O)[C@H](NC)[C@H]2O[C@@]3(O)C(=O)C[C@@H](C)O[C@H]3O[C@@H]2[C@H]1O.Cl.Cl.O.O.O.O.O
solubility (mole fraction)
Conditions | 278.15 K | 283.15 K | 288.15 K | 293.15 K | 298.15 K | 303.15 K | 308.15 K | 313.15 K | 318.15 K
in ethanol | 0.00342 | 0.00412 | 0.00443 | 0.00484 | 0.00545 | 0.00629 | 0.00664 | 0.00738 | 0.00807
in isopropanol | 0.00031 | 0.0004 | 0.00051 | 0.00066 | 0.00074 | 0.00086 | 0.00101 | 0.00114 | 0.00131
in methanol | 0.00988 | 0.0138 | 0.0185 | 0.0226 | 0.032 | 0.0385 | 0.0439 | 0.0531 | 0.0629
in n-propanol | 0.00098 | 0.00125 | 0.00157 | 0.00219 | 0.0027 | 0.00336 | 0.00373 | 0.00447 | 0.00531
